Data as given in a melting point compilation (Tetko et al.; mined from patent text by program, amines drawn as free bases though some values may be those of a salt).

Row | SMILES | melting point [°C]
1 | COc1cc(OCC2CCCO2)ccc1C=O (centres undefined) | 73.3
2 | O=C1NCC2CC1c1ccccc12 (centres undefined) | 172 to 173
3 | CN(C)c1ccc(CC(OCC(O)CN2CCCCC2)C(=O)c2ccccc2)cc1 (centres undefined) | 113 to 115
4 | CC1(C)COS(=O)Oc2ccc(OS(C)(=O)=O)cc21 (centres undefined) | 96 to 98
5 | CC(C)NC(=O)c1ccc(-c2ccc3oc(C4CCN(C(=O)OC(C)C)CC4)nc3c2)cc1F | 147 to 150
6 | CN(CC(=O)O)S(=O)(=O)c1ccc(-c2ccc(NC(=O)c3cc4ccccc4o3)cc2)cc1 | 226 to 228
7 | CC(C)(C)OC(=O)NCC1Cc2ccc(CC(=O)O)cc2C1 (centres undefined) | 123 to 124
8 | COC(=O)c1ccc2c(c1)c(=O)cc(-c1ccccc1)n2C | 174 to 176
9 | CCOc1ccc(Br)c(Cl)c1F | 48 to 48.5
10 | CC(C)(C)c1cc(-c2ccc(NC(=O)CCCC(=O)O)cc2)cc(C(C)(C)C)c1O | 218 to 219
11 | C=CCOc1cccc(-c2c(O)c3ccc(Cl)cc3[nH]c2=O)c1 | > 300
12 | CC1(C)OC(=C(C#N)C#N)C(C#N)=C1c1ccc(C2CCCCCN2)s1 (centres undefined) | 264
13 | CC(=O)Nc1ccc2c(c1)S(=O)(=O)N(CCCCN1CCN(c3ncccn3)CC1)C2=O | 162
14 | O=C(OCc1ccccc1)N1CCc2c(sc3nc(CN4C(=O)CCC4=O)c(Cl)c(-c4ccc(OCC(F)(F)F)cc4)c23)C1 | 190 to 191
15 | COCN(c1c(C)ccc2ccccc12)C1COC(=O)C1 (centres undefined) | 42 to 46
16 | CCC[C@H]1CC[C@H](C(=O)O)CC1 | 97 to 98
17 | COc1ccc(C(=O)Nc2c(Cl)cncc2Cl)c2c1[nH]c1ccccc12 | > 250
18 | COc1ccc(C2CCC(=O)N(CCN(C)C)c3ccccc3C2=O)cc1 (centres undefined) | 116 to 117
19 | O=C(Nc1nccs1)c1cccc(C[C@@H]2COc3ccc(OCc4nc5cc(F)ccc5s4)cc3[C@@H]2O)c1 (relative stereo) | 120
20 | CCCCCCC(=O)CC(=O)c1ccccc1 | 14
21 | COc1ccc(C(=O)c2ccc(CC(=O)O)n2C)cc1 | 170 to 171
22 | O=C(Nc1cccc(Br)n1)c1cc(-c2ccc(F)cc2)n(C2CCCCO2)n1 (centres undefined) | 151 to 152
23 | COc1ccc(C2(c3ccc(OC)c(OC)c3)CCC(=O)O2)cc1OC | 133 to 134
24 | CCCOc1ccc(O)cc1OC | 54 to 56
25 | CC1(C)CS(=O)(=O)CC(C)(C)c2[nH]c(-c3ccccc3)nc21 | 260 to 263

Row | SMILES | melting point [°C]
26 | CN1CCC(C2=C(C#N)C(c3cccc4nonc34)c3c[nH]nc3N2)CC1 (centres undefined) | > 270
27 | O=C(NCCCCCn1ccnc1)c1cc2cc(Cl)ccc2[nH]1 | 214 to 216
28 | CN(C)c1nnc(-c2nnc(SCCC(F)=C(F)F)o2)o1 | 87 to 90
29 | c1ccc2c(N3CCCC3)nc(N3CCCC3)nc2c1 | 127 to 129
30 | CCCC(=O)Nc1n[nH]c2c(F)c(N3CCOCC3)c(Br)cc12 | 240
31 | Cc1cc(C(Cc2ccc(CCCc3nc(-c4ccccc4)oc3C)cc2)C(=O)O)on1 (centres undefined) | 133 to 135
32 | CCOC(=O)c1cn2c(cc(Cl)c3ccc(Cl)cc32)n1 | 229 to 230
33 | On1c(-c2ccccc2)csc1=S | 149 to 151
34 | CC(C)n1nc(-c2ccccc2)c(-c2ccc(F)cc2)c1CBr | 93 to 95
35 | CC(C)CCCC(C)C1CCC2C3CC=C4CC(OC(=O)C(C)(C)COP(=O)(O)OCCBr)CCC4(C)C3CCC12C (centres undefined) | 98
36 | N#Cc1nn(-c2c(Cl)cc(C(F)(F)F)cc2Cl)c(-n2cccn2)c1S(=O)(=O)C(F)(F)F | 191 to 193
37 | CCCCC[C@H]1CC[C@H](c2ccc(-c3ccc(CO)cc3)cc2)CC1 | 180
38 | O=S1(=O)NCN(CCF)c2cc(F)ccc21 | 107 to 109
39 | CNc1nc(-c2cccc(NC(=O)C3CC3)c2)c2cc(OC)c(OC)cc2n1 | 205 to 207
40 | CC(C)c1ccc(-n2c(CC(=O)O)c(C(=O)O)c3cc(Oc4ccc(Cl)c(Cl)c4)ccc32)cc1 | 174 to 180
41 | O=C1c2ccccc2C(=O)c2c1c(O)c1ccccc1c2O | 214 to 216
42 | CC(=O)c1ccc(Nc2cccc(-c3cccnc3)c2)c(N)c1 | 175 to 176
43 | CCC(CC)C(NS(=O)(=O)c1ccc(Cl)s1)c1ccnn1Cc1ccc(O)cc1 (centres undefined) | 90 to 92
44 | O=Cc1cc2c3ccccc3ccc2c2occc12 | 145 to 150
45 | COc1cc(C=CCN2CCc3nc(N)sc3CC2)cc(OC)c1 | 114 to 119
46 | Cc1nc(NC(=O)NS(=O)(=O)c2ccccc2[N+](=O)[O-])nc2c1CCC2 | 202 to 205
47 | COC1C=CC2C3Cc4ccc(O)c5c4C2(CCN3C)C1O5 (centres undefined) | 242 to 243
48 | N#Cc1c(Cl)[nH]c(-c2ccc(Cl)c(Cl)c2)c1Cl | > 200
49 | N#Cc1ccc(C(O)C23CCCN2C(=O)N(c2cc(Cl)cc(Cl)c2)C3=O)cc1 (centres undefined) | 184
50 | Cc1ncccc1NC(=NC#N)NC(NC(=O)Cc1ccc(Cl)cc1)C(C)(C)C (centres undefined) | 180 to 181

Row | SMILES | melting point [°C]
51 | CC1=NC(NC(=O)Nc2cccc(C)c2)C(=O)N(CC(=O)N2CCC(C(N)=O)CC2)c2c(C)cccc21 (centres undefined) | 197 to 198
52 | CC(C)(C)OC(=O)N1CCCC1C(=O)Nc1ccc(-n2nc(C(F)(F)F)cc2C(F)(F)F)cc1 (centres undefined) | 70 to 72
53 | CC(=O)c1cc(CO)c(O)cc1O | 151 to 152
54 | COCOc1cc(Cl)ccc1-c1cc(-c2cccc(C(=O)OC)c2)c(C#N)c(N)n1 | 159 to 160
55 | COCCOc1cc2nccc(Oc3cccc(O)c3)c2cc1C#N | 159 to 163
56 | CCCC(CCC)(CCC(N)=S)C(CCC)(CCC)C(N)=S | 87 to 88
57 | COc1ccc(S(=O)(=O)Nc2ccccc2C(F)(F)F)cc1 | 92 to 93
58 | CCOC(=NS(C)(=O)=O)N1Cc2ccccc2-c2ccccc2C1 | 136 to 138
59 | COC(c1ccc(Cl)cc1)(c1ccc(NC(=O)c2cccc(I)c2C(=O)NC(C)C)c(C)c1)C(F)(F)F (centres undefined) | 212 to 214
60 | O=C(O)c1cccc(-c2ccnc3c(C(=O)c4cccs4)cnn23)c1 | 174 to 177
61 | Fc1ccccc1NC(=S)N1CCN(c2cnccn2)CC1 | 151 to 153
62 | N#Cc1ccc([C@@H]2[C@@H]3C(=O)N(Cc4ccccc4)C(=O)[C@@H]3[C@H]3CCCN32)cc1 (racemic) | 191 to 193
63 | Fc1cc2c(c(-c3c(Cl)cccc3Cl)c1)OC(CNCC1CC1)C2 (centres undefined) | 130 to 133
64 | COC(=O)C(CCc1ccc(C#N)cc1)C(N)=O (centres undefined) | 125
65 | OCCOc1ccc(Nc2cc(Nc3ccccc3F)ncn2)cc1 | 163 to 166
66 | O=C1C(=Cc2ccccc2)COc2ccccc21 | 112 to 113
67 | CC(=O)N1CCCCc2ccc(/C=C/CN(C)C)cc21 | 87 to 88
68 | COc1ccccc1CN1C(=O)C2CCCC2N(C(=O)CN2C(=O)c3ccccc3C2=O)c2ccccc21 (centres undefined) | 261 to 272
69 | CC(=O)OCCCC(C(=O)C=Cc1ccc(O)c(OC(F)(F)F)c1)C(=O)C=Cc1ccc(O)c(OC(F)(F)F)c1 (centres undefined) | 130 to 131
70 | CC1CC(C)(CO)CN1c1ccc(C#N)c2ccccc12 (centres undefined) | 100 to 101
71 | COC(=O)/C=C\C(=O)Nc1ccc2c(=O)n3c(nc2c1)C(=Cc1ccccc1)CC3 | 233 to 235
72 | CCCCc1ncc(C(C)CC(=O)O)n1Cc1ccccc1Cl (centres undefined) | 131 to 133
73 | NC(=O)c1ccc2c(c1)C(=O)C1(CC1)O2 | 243 to 244
74 | CC(C)SSCC12CCC(O)CC1=CCC1C3CCC(=O)C3(C)CCC12 (centres undefined) | 168 to 169
75 | CC1=C(C(=O)OCCOc2ccccc2)C(c2ccccc2C(F)(F)F)c2c(ccnc2OC(C)C)N1 (centres undefined) | 110 to 113

Row | SMILES | melting point [°C]
76 | Cc1oc(-c2ccccc2)nc1COc1ccc(Cc2nc(CCC(=O)O)c(-c3ccccc3)s2)cc1 | 119 to 120
77 | CC(C)[C@H](NCc1ccc(I)cc1)C(=O)O | 256 to 258
78 | COc1cccc(C(=O)C=Cc2ccc(OC)cc2OC)c1 | 75.6 to 78.9
79 | C[C@@H](Oc1ccc2c(c1)N(C)C(=O)N(c1ccc(Cl)cc1)S2(=O)=O)C(=O)O | 85 to 95
80 | CNC(=O)N(C)c1nnc(SCc2cccc(F)c2)s1 | 112 to 116
81 | Cc1sc2nc(SCCCN3CCN(c4nc5ccccc5s4)CC3)n(N)c(=O)c2c1C | 200 to 201
82 | O=C(NCc1cccc(OCCOc2nc[nH]n2)c1)c1nc2ccc(F)c(F)c2c(=O)[nH]1 | 205 to 207
83 | O=C(O)c1cnn2c(C(F)(F)F)cc(-c3cccc(C(F)(F)F)c3)nc12 | 212
84 | CCOCCOC(=O)C1=C(C)NC(C#N)=C(C(=O)OCC)C1c1cccc([N+](=O)[O-])c1 (centres undefined) | 89 to 91
85 | N#CCc1ccc2onc(-c3ccc(Cl)cc3)c2c1 | 118
86 | C[Si](C)(C)/C=C/c1c(N)nc(C2CC2)nc1C(=O)O | 146 to 149
87 | CCCNC(=O)n1c(Cc2ccccc2)noc1=O | 74
88 | Nc1nc(-c2ccc(CCN3CCN(c4cccc5cccnc45)CC3)cc2)cs1 | > 225
89 | Cc1ccc(-c2cc(F)c(F)cc2-c2ccc(S(N)(=O)=O)cc2)cc1C | 133 to 134
90 | O=C(OCc1ccccc1)C1C(Sc2ccccc2)CC2CC(=O)N21 (centres undefined) | 84 to 85
91 | CCCc1c(OCCCCc2nnn[nH]2)ccc(C(C)=O)c1O | 114 to 115
92 | CCCc1ccc2nc(Cl)cn2n1 | 73.9 to 80
93 | Cc1c(CC#N)cc(C(C)(C)C)c(O)c1C | 126 to 128
94 | COC(=O)NNC(=O)c1ccc(O)cc1 | 229 to 230
95 | C1=C(c2cc(-c3ccccc3)no2)CCN(Cc2c[nH]c3ncccc23)C1 | 224 to 226
96 | COc1cc(OC)nc(Oc2ccnc3cc(Cl)ccc23)n1 | 119 to 120
97 | CCOc1ccc(CNC(=O)C(=O)NCCc2ccccn2)c(OC)c1 | 117 to 118
98 | COc1ccc(-c2ncn(CCC(C)(C)NCC(O)c3ccc(O)c(CO)c3)n2)cc1 (centres undefined) | 142 to 145
99 | CC(C)(C)c1cc2c(c(C(C)(C)C)c1)OC(=O)C2c1ccc(OCC(=O)O)cc1 (centres undefined) | 158 to 162
